Biological target: High affinity nerve growth factor receptor (Homo sapiens, UniProt P04629)
Test: Functional Activity Assay: TrkA functional activity was measured using a DiscoverX PathHunter assay. In this assay, U2OS cells express the human TrkA receptor as a fusion with the weakly complementing fragment of B-galactosidase, which DiscoverX calls “Prolink (PK)”; additionally, Shcl is fused with a larger fragment, which is called “Enzyme Acceptor (EA)”. Activation of the TrkA receptor, upon NGF addition, results in the kinase domain being phosphorylated, resulting in subsequent recruitment of Shcl-EA protein. That recruitment results in an active B-galactosidase enzyme that is detected by addition of a chemiluminescent substrate. The human p75NTR protein was also expressed as a co-receptor for NGF.All reagents were purchased from DiscoverX, except for the receptor agonists (NGF, BDNF, NT3) which were purchased from Peprotech. Cells were expanded and frozen into cryovials, and stored in the vapor phase of liquid nitrogen, and thawed immediately before use. Thawed cells were added to a 384-well plate at 7500 cells/well, and allowed to incubate overnight. Compound at various concentrations was added the following morning and allowed to incubate on cells for 1 h. Then, NGF was added at a concentration sufficient to elicit ˜80% of a maximal response and allowed to incubate for 3 h at ambient temperature.

Sequence of High affinity nerve growth factor receptor (P04629 whole entry, the tested form may be a part): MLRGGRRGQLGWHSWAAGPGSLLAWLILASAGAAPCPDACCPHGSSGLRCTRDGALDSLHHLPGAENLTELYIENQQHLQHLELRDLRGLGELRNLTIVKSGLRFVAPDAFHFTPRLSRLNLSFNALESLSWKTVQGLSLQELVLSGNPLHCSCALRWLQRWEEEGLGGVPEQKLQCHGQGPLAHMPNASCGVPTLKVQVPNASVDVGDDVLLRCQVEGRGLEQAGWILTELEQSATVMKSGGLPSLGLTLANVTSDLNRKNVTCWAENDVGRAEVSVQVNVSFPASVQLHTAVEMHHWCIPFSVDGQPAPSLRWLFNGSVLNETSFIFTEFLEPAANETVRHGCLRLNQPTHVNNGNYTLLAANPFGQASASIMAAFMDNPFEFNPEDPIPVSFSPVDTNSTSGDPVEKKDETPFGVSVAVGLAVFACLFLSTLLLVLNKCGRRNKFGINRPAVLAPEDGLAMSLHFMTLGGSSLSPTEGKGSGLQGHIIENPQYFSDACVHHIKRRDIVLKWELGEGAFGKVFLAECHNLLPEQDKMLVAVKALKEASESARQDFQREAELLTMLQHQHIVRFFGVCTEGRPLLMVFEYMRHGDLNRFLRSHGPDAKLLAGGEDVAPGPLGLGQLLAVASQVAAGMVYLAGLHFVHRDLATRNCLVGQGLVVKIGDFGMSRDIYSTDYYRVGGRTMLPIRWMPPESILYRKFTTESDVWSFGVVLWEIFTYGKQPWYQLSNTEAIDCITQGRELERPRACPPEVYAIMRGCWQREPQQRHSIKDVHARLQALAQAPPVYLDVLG

IC50: 1 nM
SMILES: Cc1ncc(NC(=O)c2cc(-c3ccn(C)n3)c(C(F)(F)F)cc2F)c(-c2ccccc2)n1

Reference: ChEMBL document CHEMBL5726597, “TrkA kinase inhibitors, compositions and methods thereof” (2017)
